Drawing on ChEMBL document CHEMBL5442175, “EUbOPEN Chemogenomics Library - PDSP Secondary Binding” (2024), this text covers Ki for four compounds.

One assay concerns the target D(2) dopamine receptor (Homo sapiens, UniProt P14416). Nature of the assay: PDSP Secondary Binding target: DRD2 - Compounds are tested at 10 uM concentration, plate are incubated at room temperature in the dark for 90 minutes. Reaction are stopped by vacuum filtration onto 0.3% polyethyleneimine soaked filter mats using Filtermate harvester. Scintillation cocktail is then melted onto microwave-dried filters on a hot plate and the radio activity is counted in Microbia counter.

The target of a further assay is T1, D(4) dopamine receptor (Homo sapiens, UniProt P21917).
T1 sequence (P21917 whole entry): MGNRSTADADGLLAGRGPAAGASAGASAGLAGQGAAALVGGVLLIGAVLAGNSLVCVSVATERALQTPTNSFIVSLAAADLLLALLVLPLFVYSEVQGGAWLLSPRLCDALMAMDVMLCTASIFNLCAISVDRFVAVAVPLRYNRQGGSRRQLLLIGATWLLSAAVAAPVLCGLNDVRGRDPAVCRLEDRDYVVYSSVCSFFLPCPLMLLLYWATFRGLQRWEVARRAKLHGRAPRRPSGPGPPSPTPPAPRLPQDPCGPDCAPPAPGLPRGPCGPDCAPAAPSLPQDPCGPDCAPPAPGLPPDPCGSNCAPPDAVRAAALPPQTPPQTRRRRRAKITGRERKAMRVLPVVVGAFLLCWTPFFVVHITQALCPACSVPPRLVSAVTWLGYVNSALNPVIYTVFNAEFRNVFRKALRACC
Put plainly: PDSP Secondary Binding target: DRD4 - Compounds are tested at 10 uM concentration, plate are incubated at room temperature in the dark for 90 minutes. Reaction are stopped by vacuum filtration onto 0.3% polyethyleneimine soaked filter mats using Filtermate harvester. Scintillation cocktail is then melted onto microwave-dried filters on a hot plate and the radio activity is counted in Microbia counter.

The target of assay [1] is Sodium-dependent noradrenaline transporter (Homo sapiens, UniProt P23975). Nature of the assay: PDSP Secondary Binding target: SLC6A2 - Compounds are tested at 10 uM concentration, plate are incubated at room temperature in the dark for 90 minutes. Reaction are stopped by vacuum filtration onto 0.3% polyethyleneimine soaked filter mats using Filtermate harvester. Scintillation cocktail is then melted onto microwave-dried filters on a hot plate and the radio activity is counted in Microbia counter.

In assay [2] the target is T2, Muscarinic acetylcholine receptor M5 (Homo sapiens, UniProt P08912).
T2 sequence (P08912 whole entry): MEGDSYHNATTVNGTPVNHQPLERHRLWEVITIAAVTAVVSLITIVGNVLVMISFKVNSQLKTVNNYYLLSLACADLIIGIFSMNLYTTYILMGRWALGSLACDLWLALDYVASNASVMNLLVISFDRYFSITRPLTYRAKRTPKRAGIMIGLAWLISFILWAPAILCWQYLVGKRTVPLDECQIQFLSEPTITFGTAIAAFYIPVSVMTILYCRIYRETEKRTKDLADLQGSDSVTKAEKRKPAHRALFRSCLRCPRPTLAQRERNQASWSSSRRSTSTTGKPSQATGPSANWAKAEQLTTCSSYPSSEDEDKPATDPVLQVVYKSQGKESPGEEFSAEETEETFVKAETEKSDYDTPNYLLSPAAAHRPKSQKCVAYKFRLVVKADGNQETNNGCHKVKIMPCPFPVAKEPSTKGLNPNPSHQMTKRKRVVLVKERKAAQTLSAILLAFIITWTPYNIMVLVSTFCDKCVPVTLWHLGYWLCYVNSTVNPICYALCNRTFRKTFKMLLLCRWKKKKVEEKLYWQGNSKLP
Put plainly: PDSP Secondary Binding target: CHRM5 - Compounds are tested at 10 uM concentration, plate are incubated at room temperature in the dark for 90 minutes. Reaction are stopped by vacuum filtration onto 0.3% polyethyleneimine soaked filter mats using Filtermate harvester. Scintillation cocktail is then melted onto microwave-dried filters on a hot plate and the radio activity is counted in Microbia counter.

Assay [3] has as its target T3, Alpha-2B adrenergic receptor (Homo sapiens, UniProt P18089).
T3 sequence (P18089 whole entry): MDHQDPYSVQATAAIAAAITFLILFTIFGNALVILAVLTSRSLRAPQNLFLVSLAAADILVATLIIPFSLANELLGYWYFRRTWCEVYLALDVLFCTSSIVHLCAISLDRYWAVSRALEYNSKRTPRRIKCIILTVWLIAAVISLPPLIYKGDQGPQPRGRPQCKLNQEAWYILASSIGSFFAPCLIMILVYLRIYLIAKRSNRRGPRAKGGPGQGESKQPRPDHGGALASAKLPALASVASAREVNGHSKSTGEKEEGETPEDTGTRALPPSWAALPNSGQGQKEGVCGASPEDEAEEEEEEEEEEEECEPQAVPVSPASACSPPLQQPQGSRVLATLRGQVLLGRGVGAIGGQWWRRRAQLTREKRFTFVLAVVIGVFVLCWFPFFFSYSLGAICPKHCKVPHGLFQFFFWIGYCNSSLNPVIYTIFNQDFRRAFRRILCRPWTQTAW
Put plainly: PDSP Secondary Binding target: ADRA2B - Compounds are tested at 10 uM concentration, plate are incubated at room temperature in the dark for 90 minutes. Reaction are stopped by vacuum filtration onto 0.3% polyethyleneimine soaked filter mats using Filtermate harvester. Scintillation cocktail is then melted onto microwave-dried filters on a hot plate and the radio activity is counted in Microbia counter.

The target in assay [4] is Sodium-dependent serotonin transporter (Homo sapiens, UniProt P31645). Nature of the assay: PDSP Secondary Binding target: SLC6A4 - Compounds are tested at 10 uM concentration, plate are incubated at room temperature in the dark for 90 minutes. Reaction are stopped by vacuum filtration onto 0.3% polyethyleneimine soaked filter mats using Filtermate harvester. Scintillation cocktail is then melted onto microwave-dried filters on a hot plate and the radio activity is counted in Microbia counter.

A further assay concerns the target D(3) dopamine receptor (Homo sapiens, UniProt P35462). Nature of the assay: PDSP Secondary Binding target: DRD3 - Compounds are tested at 10 uM concentration, plate are incubated at room temperature in the dark for 90 minutes. Reaction are stopped by vacuum filtration onto 0.3% polyethyleneimine soaked filter mats using Filtermate harvester. Scintillation cocktail is then melted onto microwave-dried filters on a hot plate and the radio activity is counted in Microbia counter.

Assay [5] concerns the target Sigma intracellular receptor 2 (Homo sapiens, UniProt Q5BJF2). Nature of the assay: PDSP Secondary Binding target: TMEM97 - Compounds are tested at 10 uM concentration, plate are incubated at room temperature in the dark for 90 minutes. Reaction are stopped by vacuum filtration onto 0.3% polyethyleneimine soaked filter mats using Filtermate harvester. Scintillation cocktail is then melted onto microwave-dried filters on a hot plate and the radio activity is counted in Microbia counter.

The target in assay [6] is T4, Alpha-2A adrenergic receptor (Homo sapiens, UniProt P08913).
T4 sequence (P08913 whole entry): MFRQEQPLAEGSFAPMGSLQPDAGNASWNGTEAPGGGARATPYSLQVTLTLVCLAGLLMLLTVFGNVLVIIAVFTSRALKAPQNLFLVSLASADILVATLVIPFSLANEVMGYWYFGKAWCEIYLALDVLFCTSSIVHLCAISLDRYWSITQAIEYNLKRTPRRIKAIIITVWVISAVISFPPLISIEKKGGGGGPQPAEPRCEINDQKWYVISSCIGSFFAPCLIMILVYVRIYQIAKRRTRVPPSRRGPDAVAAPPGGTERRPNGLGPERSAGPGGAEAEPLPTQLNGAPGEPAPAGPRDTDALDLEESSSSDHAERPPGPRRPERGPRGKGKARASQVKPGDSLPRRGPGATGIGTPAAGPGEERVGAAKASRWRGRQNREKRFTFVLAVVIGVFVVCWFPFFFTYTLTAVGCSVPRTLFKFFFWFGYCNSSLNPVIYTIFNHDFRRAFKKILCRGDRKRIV
Put plainly: PDSP Secondary Binding target: ADRA2A - Compounds are tested at 10 uM concentration, plate are incubated at room temperature in the dark for 90 minutes. Reaction are stopped by vacuum filtration onto 0.3% polyethyleneimine soaked filter mats using Filtermate harvester. Scintillation cocktail is then melted onto microwave-dried filters on a hot plate and the radio activity is counted in Microbia counter.

The target in the next assay is Mu-type opioid receptor (Homo sapiens, UniProt P35372). Nature of the assay: PDSP Secondary Binding target: OPRM1 - Compounds are tested at 10 uM concentration, plate are incubated at room temperature in the dark for 90 minutes. Reaction are stopped by vacuum filtration onto 0.3% polyethyleneimine soaked filter mats using Filtermate harvester. Scintillation cocktail is then melted onto microwave-dried filters on a hot plate and the radio activity is counted in Microbia counter.

In assay [7] the target is Sodium-dependent dopamine transporter (Homo sapiens, UniProt Q01959). Put plainly: PDSP Secondary Binding target: SLC6A3 - Compounds are tested at 10 uM concentration, plate are incubated at room temperature in the dark for 90 minutes. Reaction are stopped by vacuum filtration onto 0.3% polyethyleneimine soaked filter mats using Filtermate harvester. Scintillation cocktail is then melted onto microwave-dried filters on a hot plate and the radio activity is counted in Microbia counter.

A further assay concerns the target Translocator protein (Homo sapiens, UniProt P30536). Nature of the assay: PDSP Secondary Binding target: TSPO - Compounds are tested at 10 uM concentration, plate are incubated at room temperature in the dark for 90 minutes. Reaction are stopped by vacuum filtration onto 0.3% polyethyleneimine soaked filter mats using Filtermate harvester. Scintillation cocktail is then melted onto microwave-dried filters on a hot plate and the radio activity is counted in Microbia counter.

Assay [8] deals with 5-hydroxytryptamine receptor 7 (Homo sapiens, UniProt P34969). Nature of the assay: PDSP Secondary Binding target: HTR7 - Compounds are tested at 10 uM concentration, plate are incubated at room temperature in the dark for 90 minutes. Reaction are stopped by vacuum filtration onto 0.3% polyethyleneimine soaked filter mats using Filtermate harvester. Scintillation cocktail is then melted onto microwave-dried filters on a hot plate and the radio activity is counted in Microbia counter.

Assay [9] has as its target 5-hydroxytryptamine receptor 5A (Homo sapiens, UniProt P47898). Put plainly: PDSP Secondary Binding target: HTR5A - Compounds are tested at 10 uM concentration, plate are incubated at room temperature in the dark for 90 minutes. Reaction are stopped by vacuum filtration onto 0.3% polyethyleneimine soaked filter mats using Filtermate harvester. Scintillation cocktail is then melted onto microwave-dried filters on a hot plate and the radio activity is counted in Microbia counter.

Assay [10] deals with 5-hydroxytryptamine receptor 1B (Homo sapiens, UniProt P28222). Nature of the assay: PDSP Secondary Binding target: HTR1B - Compounds are tested at 10 uM concentration, plate are incubated at room temperature in the dark for 90 minutes. Reaction are stopped by vacuum filtration onto 0.3% polyethyleneimine soaked filter mats using Filtermate harvester. Scintillation cocktail is then melted onto microwave-dried filters on a hot plate and the radio activity is counted in Microbia counter.

Assay [11] has as its target Sigma non-opioid intracellular receptor 1 (Homo sapiens, UniProt Q99720). Put plainly: PDSP Secondary Binding target: SIGMAR1 - Compounds are tested at 10 uM concentration, plate are incubated at room temperature in the dark for 90 minutes. Reaction are stopped by vacuum filtration onto 0.3% polyethyleneimine soaked filter mats using Filtermate harvester. Scintillation cocktail is then melted onto microwave-dried filters on a hot plate and the radio activity is counted in Microbia counter.

Another assay addresses Histamine H1 receptor (Homo sapiens, UniProt P35367). Put plainly: PDSP Secondary Binding target: HRH1 - Compounds are tested at 10 uM concentration, plate are incubated at room temperature in the dark for 90 minutes. Reaction are stopped by vacuum filtration onto 0.3% polyethyleneimine soaked filter mats using Filtermate harvester. Scintillation cocktail is then melted onto microwave-dried filters on a hot plate and the radio activity is counted in Microbia counter.

For assay [12], the target named is T5, Alpha-2C adrenergic receptor (Homo sapiens, UniProt P18825).
T5 sequence (P18825 whole entry): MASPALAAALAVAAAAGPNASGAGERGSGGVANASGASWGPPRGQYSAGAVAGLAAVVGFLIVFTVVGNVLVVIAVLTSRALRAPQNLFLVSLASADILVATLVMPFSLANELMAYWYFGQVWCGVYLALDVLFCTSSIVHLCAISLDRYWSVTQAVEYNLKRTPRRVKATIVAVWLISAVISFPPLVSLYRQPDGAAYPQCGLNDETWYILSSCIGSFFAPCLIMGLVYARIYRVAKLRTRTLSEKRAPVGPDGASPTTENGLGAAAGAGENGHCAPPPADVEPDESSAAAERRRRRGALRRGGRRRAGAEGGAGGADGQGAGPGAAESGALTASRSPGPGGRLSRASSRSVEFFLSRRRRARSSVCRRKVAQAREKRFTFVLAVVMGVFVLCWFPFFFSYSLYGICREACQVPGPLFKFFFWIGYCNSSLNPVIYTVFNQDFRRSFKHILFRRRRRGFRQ
Nature of the assay: PDSP Secondary Binding target: ADRA2C - Compounds are tested at 10 uM concentration, plate are incubated at room temperature in the dark for 90 minutes. Reaction are stopped by vacuum filtration onto 0.3% polyethyleneimine soaked filter mats using Filtermate harvester. Scintillation cocktail is then melted onto microwave-dried filters on a hot plate and the radio activity is counted in Microbia counter.

As usually defined, the Ki is the equilibrium dissociation constant of an inhibitor or competing ligand from its target. Low values mean tighter binding, high ones weaker binding.

Counter-ions that a name gives are not always drawn.

D(2) dopamine receptor, sequence (P14416 whole entry): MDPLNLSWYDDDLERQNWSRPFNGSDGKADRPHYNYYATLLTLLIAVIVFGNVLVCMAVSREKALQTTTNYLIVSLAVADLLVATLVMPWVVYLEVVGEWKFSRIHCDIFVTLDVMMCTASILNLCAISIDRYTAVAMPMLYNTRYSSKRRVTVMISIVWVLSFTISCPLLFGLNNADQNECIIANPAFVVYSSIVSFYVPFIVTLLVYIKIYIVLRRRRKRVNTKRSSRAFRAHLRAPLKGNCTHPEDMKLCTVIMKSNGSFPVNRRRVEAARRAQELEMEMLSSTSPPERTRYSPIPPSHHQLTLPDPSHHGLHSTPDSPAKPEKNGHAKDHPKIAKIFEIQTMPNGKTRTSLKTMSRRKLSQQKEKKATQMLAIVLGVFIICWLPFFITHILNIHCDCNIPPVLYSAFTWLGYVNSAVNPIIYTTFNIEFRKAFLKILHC
Mu-type opioid receptor, sequence (P35372 whole entry): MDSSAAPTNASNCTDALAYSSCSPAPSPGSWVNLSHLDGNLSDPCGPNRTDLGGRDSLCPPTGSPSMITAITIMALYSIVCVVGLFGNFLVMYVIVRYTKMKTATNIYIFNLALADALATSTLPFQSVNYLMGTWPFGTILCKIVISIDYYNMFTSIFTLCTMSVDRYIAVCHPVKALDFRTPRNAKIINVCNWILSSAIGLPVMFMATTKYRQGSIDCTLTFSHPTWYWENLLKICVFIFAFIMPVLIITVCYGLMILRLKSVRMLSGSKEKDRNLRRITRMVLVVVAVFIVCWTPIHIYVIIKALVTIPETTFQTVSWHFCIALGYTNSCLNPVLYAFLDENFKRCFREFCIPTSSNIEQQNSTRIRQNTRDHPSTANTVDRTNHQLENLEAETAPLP
Translocator protein, sequence (P30536 whole entry): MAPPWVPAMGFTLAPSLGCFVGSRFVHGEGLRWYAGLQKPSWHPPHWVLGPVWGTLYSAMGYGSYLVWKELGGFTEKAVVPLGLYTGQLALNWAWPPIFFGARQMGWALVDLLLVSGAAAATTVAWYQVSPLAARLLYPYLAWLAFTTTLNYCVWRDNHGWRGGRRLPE
Sodium-dependent noradrenaline transporter, sequence (P23975 whole entry): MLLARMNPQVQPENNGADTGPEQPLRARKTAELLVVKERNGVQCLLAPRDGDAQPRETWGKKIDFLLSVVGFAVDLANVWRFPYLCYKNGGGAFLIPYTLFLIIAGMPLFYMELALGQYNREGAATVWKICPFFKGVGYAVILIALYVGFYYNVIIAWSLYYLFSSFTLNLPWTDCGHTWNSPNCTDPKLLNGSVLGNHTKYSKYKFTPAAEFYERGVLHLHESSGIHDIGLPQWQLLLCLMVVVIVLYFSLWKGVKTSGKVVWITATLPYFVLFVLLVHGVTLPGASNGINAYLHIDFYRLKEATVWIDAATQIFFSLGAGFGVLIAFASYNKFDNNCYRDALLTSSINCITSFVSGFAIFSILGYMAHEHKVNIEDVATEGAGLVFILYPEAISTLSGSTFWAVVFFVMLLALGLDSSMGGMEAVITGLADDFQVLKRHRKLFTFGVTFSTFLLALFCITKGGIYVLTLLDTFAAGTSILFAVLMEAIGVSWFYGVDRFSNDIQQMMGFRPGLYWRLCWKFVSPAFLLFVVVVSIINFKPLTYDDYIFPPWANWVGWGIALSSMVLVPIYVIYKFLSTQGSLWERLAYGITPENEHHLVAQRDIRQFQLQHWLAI
Sigma intracellular receptor 2, sequence (Q5BJF2 whole entry): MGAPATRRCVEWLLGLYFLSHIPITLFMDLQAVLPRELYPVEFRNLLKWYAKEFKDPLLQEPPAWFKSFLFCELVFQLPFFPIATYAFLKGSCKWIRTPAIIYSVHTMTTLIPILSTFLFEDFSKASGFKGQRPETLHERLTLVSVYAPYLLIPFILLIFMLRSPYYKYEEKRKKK
Sodium-dependent serotonin transporter, sequence (P31645 whole entry): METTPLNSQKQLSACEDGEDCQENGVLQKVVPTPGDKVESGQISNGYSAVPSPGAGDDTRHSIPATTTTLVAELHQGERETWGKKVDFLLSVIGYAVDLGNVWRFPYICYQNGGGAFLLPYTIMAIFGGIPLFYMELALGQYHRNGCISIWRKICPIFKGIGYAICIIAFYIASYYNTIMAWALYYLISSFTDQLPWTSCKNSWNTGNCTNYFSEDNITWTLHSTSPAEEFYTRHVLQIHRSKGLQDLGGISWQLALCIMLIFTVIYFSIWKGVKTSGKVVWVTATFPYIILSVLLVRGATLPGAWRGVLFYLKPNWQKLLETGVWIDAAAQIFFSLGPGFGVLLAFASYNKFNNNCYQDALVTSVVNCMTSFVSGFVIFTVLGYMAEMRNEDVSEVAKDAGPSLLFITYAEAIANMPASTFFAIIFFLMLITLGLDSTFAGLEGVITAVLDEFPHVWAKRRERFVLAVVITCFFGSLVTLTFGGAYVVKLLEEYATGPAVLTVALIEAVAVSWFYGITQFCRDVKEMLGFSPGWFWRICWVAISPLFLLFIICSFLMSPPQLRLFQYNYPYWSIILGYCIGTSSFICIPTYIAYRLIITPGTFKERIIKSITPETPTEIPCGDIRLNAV
Sodium-dependent dopamine transporter, sequence (Q01959 whole entry): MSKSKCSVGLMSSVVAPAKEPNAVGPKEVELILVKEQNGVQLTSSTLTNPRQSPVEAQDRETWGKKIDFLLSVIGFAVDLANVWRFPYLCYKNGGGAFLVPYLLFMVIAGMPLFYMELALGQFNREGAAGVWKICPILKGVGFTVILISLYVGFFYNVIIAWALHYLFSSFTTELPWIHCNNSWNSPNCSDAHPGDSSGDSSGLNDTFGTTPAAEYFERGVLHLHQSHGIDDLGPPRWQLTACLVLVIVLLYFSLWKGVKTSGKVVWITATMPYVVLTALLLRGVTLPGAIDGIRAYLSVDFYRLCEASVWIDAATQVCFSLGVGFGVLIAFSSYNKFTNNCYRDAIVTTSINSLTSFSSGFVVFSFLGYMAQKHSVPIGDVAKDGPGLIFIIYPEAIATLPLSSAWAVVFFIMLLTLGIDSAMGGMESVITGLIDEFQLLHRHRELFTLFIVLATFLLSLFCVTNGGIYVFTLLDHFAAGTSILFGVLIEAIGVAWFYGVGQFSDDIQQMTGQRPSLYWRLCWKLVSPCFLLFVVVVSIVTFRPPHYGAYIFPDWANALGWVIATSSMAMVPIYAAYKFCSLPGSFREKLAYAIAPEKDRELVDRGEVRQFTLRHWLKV
5-hydroxytryptamine receptor 1B, sequence (P28222 whole entry): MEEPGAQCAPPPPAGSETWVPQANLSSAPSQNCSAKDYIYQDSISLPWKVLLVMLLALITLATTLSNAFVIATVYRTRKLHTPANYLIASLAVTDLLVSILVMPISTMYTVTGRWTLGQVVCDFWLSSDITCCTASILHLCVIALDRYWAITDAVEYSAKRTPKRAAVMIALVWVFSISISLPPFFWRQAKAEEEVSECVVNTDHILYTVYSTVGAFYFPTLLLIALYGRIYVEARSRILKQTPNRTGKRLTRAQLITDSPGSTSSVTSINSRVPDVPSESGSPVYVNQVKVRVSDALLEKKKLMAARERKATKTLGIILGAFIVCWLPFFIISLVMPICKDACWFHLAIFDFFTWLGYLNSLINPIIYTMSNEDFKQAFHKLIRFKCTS
5-hydroxytryptamine receptor 7, sequence (P34969 whole entry): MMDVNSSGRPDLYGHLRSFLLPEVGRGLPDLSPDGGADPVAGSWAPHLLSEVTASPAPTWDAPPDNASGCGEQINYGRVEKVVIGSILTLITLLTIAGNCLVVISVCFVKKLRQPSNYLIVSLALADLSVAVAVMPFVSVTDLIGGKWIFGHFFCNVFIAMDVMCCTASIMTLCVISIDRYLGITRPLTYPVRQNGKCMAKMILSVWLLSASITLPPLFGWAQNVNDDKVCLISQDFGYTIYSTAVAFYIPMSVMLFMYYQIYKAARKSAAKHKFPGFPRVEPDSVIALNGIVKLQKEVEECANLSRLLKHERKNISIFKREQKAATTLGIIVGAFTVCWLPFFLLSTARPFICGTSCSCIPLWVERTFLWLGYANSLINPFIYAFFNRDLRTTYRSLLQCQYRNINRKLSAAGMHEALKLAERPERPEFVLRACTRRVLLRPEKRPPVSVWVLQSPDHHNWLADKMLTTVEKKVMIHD
D(3) dopamine receptor, sequence (P35462 whole entry): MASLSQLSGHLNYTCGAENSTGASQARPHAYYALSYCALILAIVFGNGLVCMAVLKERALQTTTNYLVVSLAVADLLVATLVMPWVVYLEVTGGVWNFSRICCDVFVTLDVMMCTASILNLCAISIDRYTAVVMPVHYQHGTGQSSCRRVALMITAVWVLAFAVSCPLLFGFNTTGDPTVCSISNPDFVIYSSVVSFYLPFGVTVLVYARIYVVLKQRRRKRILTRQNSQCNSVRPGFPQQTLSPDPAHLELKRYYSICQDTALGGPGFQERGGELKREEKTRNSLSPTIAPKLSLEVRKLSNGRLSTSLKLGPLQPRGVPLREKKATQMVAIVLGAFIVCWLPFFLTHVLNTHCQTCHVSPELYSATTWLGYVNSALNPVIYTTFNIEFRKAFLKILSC
5-hydroxytryptamine receptor 5A, sequence (P47898 whole entry): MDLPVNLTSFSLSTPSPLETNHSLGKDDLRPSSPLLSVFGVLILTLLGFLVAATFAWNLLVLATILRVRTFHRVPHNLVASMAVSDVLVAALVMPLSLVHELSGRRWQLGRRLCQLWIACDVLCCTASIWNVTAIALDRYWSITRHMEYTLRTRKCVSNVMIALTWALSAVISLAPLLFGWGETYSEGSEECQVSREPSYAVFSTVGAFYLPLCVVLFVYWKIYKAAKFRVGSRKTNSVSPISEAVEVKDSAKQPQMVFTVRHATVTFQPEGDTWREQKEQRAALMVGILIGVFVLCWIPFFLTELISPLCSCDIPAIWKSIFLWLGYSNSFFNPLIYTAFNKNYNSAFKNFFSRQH
Sigma non-opioid intracellular receptor 1, sequence (Q99720 whole entry): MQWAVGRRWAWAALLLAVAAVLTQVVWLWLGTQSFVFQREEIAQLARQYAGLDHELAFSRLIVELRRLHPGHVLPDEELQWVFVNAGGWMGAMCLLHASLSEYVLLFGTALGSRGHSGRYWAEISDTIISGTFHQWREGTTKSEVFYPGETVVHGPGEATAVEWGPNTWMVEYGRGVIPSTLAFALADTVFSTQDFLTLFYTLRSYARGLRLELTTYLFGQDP

Take `CC(C)(C(=O)O)c1ccc(C(O)CCCN2CCC(C(O)(c3ccccc3)c3ccccc3)CC2)cc1` (configuration not stated) [FEXOFENADINE HYDROCHLORIDE]: at D(2) dopamine receptor, the inhibition constant (Ki) was determined as 8810 nM.

As to `OC1(c2ccc(Cl)cc2)CCN(Cc2c[nH]c3ccccc23)CC1`, the Ki at D(4) dopamine receptor came to 569 nM; in [1], 1470 nM; in assay [2], 579 nM; in assay [3] it was 602 nM; in assay [4] it was 29.5 nM; at D(3) dopamine receptor it was 205 nM. For the same compound, the Ki was 269 nM in [5], 3850 nM in assay [6], 51.5 nM at Mu-type opioid receptor and 1400 nM in assay [7].

As to `O=c1ccn([C@@H]2O[C@H](COP(=O)(O)OP(=O)(O)OP(=O)(O)O)[C@@H](O)[C@H]2O)c(=O)[nH]1`, the Ki on D(2) dopamine receptor worked out at 3850 nM; on D(4) dopamine receptor it was 8730 nM; at Translocator protein, 4780 nM.

`COc1ccccc1N1CCN(CCCCNC(=O)c2ccc3ccccc3c2)CC1`: the Ki was determined as 1670 nM in [1]; 29.8 nM in [8]; 1180 nM at Translocator protein; 132 nM in assay [3]; 304 nM in [4]; 754 nM in [9]. The inhibition constant (Ki) turned out to be 166 nM in [10]; 256 nM in assay [11]; 113 nM in assay [5]; 125 nM at Histamine H1 receptor; 249 nM at Mu-type opioid receptor; 734 nM in [7]. Further, affinity in assay [12] was put at a Ki of 83.6 nM.
